Laboratory results taken from US9095535B2, “GABA release-regulating agent in cerebellum” (KOREA INSTITUTE OF SCIENCE AND TECHNOLOGY, priority 2009, dated 2015).

Legend:
GABAA receptor = experiment: GABA-induced whole cell current in cerebellar granule cells; assay type: cell-based; details: NPPB application 2 and 5 min; wild B6 mouse granule cells
Protocol: For puffing experiment, glass electrode (5-6 MΩ) filled with […] was positioned near to the patched granular cell and puffed briefly for 500 ms by Picospritzer III (Parker instrumentation) connected with MiniDigi (Molecular Device).
The magnitudes of GABA induced current with the NPPB application (2 and 5 min) are also shown.

cerebellar granule cells [1] = experiment: Whole-cell patch clamp of tonic GABA current in cerebellar granule cells; assay type: cell-based, mouse
Protocol: (§1) Brain slices were prepared as described in Rossi et al., 2003. For slice recording, either approximately P28 days old or more than 8 weeks old mice were used. Animals were deeply anesthetized with halothane. After decapitation, the brain was quickly excised from the skull and submerged in ice-cold cutting solution (in mM): 250 Sucrose, 26 NaHCO3, 10 D(+)-Glucose, 4 MgCl2, 3 myo-inositol, 2.5 KCl, 2 Sodium pyruvate, 1.25 NaH2PO4, 0.5 Ascorbic acid 0.1 CaCl2, 1 Kynurenic acid, pH 7.4. All solutions were gas-treated with 95% O2-5% CO2. After trimming both sides of vermis, several parasagittal slices with […] thicknesses containing cerebellar lobes were cut using a microtome (Leica VT 1000) and transferred to extracellular ACSF solution (in mM); 126 NaCl, 24 NaHCO3, 1 NaH2PO4, 2.5 KCl, 2.5 CaCl2, 2 MgCl2, 10 D(+)-Glucose, pH 7.4. Slices were incubated for one hour at least at room temperature.
For recording, slices were transferred to an electrophysiological recording chamber (RC-26G, Warner Instruments) which is continuously superfused with ASCF (artificial cerebrospinal fluid, sigma) solution (flow rate; 2 ml/min) and controlled by flower controller (Synaptosoft) and a vacuum pump (Charles Austen, model Capex 8C). Slice chamber was mounted on the stage of an upright microscope (Olympus, Japan) and viewed with an ×60 water immersion objective with differential interference contrast and infrared optics. Cellular morphologies were visually identified by Imaging Workbench 6.0 (INDEC Systems, Inc), camera controller (Hamamatsu, C4742-95), and light microscope controller (Olympus, TH4-200). Fluorescence images were viewed with mercury lamp (Olympus, U-RFL-T). Whole cell voltage-clamp recording was made from granular cell somata or Bergmann glial cells mostly located in 2-5 cerebellar lobules
Pipette resistance for granule cells was typically 10-12 MΩ and pipette was filled with an internal solution containing (in mM) 135 CsCl, 4 NaCl, 0.5 CaCl2, 10 HEPES, 5 EGTA, 2 Mg-ATP, 0.5 Na2-GTP, 10 QX-314, pH adjusted to 7.2 with CsOH (278-285 mOsmol) was used (Rossi, et al., 2003).
(§2) B6 wildtype, GFAP-GFP and hGFAP-CreERT2 trangenic mice (SPF room, Center for Neural Science, KIST, Seoul, Korea) were anaesthetized by intraperitoneal injection of 2% avertin (20 μl/g, sigma) and placed in a stereotaxic frame (David Kopf instrument). pSicoR-b1shRNA-mCherry or scrambled virus (Macrogen) was stereo-injected into cerebellar cortex at a rate of 0.2 μl/min (total 2 μl) using syringe pump (Harvard apparatus) and 25 μl syringe (Hamilton company). The coordination of injection site was 1.7 mm from the lambda and the depth was 1.5-1.7 mm from the skull.
The glia-specific CreERT activation was initiated by intraperitoneal injection of tamoxifen for 5 days prior to lentivirus injection (FIG. 4a,b). […] Tamoxifen or sunflower oil were injected intraperitoncally once a day for 5 days before lentivirus injection.

cerebellar granule cells [2] = experiment: Clomeleon imaging of [Cl−]i in cerebellar granule cells (tonic GABA release); assay type: cell-based, mouse; details: bath application of 10 μM
Protocol: as §2, with “skull. […]” for “skull.”
Clomeleon, based on fluorescence resonance energy transfer (FRET), is a genetically-encoded fluorescent indicator for Cl^− in which chloride-sensitive yellow fluroscent protein fused with chloride-insensitive cyan fluorescent protein via a flexible peptide linker (Kuner and Augustine, 2000). […]
For imaging, two ROIs (Regions of Interest) covering the granule cell layer and the molecular layer were drawn. […] Fluorescence excitation was produced by two consecutive 200 to 500 ms long light pulses at 0.5 Hz and fluorescence emission was alternately collected at each wavelength with a back-illuminated, cooled CCD camera with the on-chip multiplication gain control (Cascade 512B, Photometrics). […]

Best1 channel = biological target: T1, Best1 channel (Mus musculus, UniProt O88870); assay type: cell-based; details: NPPB 50 μM; naïve GFAP-GFP mice; ramp protocol, Vh=−70 mV
T1 construct: from tissue; host or cells: mouse cerebellar slices / sections (Bergmann glial cells)
T1 sequence (O88870 1-551): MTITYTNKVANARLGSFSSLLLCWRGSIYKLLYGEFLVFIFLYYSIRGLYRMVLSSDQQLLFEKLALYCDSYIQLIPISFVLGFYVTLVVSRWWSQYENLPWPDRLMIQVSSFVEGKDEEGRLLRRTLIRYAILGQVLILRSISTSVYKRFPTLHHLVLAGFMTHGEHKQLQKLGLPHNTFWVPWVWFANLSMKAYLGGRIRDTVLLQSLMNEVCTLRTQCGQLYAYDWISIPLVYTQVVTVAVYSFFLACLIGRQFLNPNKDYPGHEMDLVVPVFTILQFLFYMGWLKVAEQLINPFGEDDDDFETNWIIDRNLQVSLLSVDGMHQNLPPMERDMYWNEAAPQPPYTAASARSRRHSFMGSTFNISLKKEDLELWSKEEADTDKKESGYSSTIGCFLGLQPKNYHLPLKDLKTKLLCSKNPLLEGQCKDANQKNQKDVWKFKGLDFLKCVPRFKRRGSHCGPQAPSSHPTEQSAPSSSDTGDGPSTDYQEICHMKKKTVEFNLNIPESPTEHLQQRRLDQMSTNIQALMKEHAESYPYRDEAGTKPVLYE
Protocol: as §1
For recording, slices were transferred to an electrophysiological recording chamber (RC-26G, Warner Instruments) which is continuously superfused with ASCF (artificial cerebrospinal fluid, sigma) solution (flow rate; 2 ml/min) and controlled by flower controller (Synaptosoft) and a vacuum pump (Charles Austen, model Capex 8C). […] Fluorescence images were viewed with mercury lamp (Olympus, U-RFL-T). […]

Anion current in Bergmann glial cells (Best1 channel): decreased
Structure (SMILES): O=C(O)c1cc([N+](=O)[O-])ccc1NCCCc1ccccc1 [NPPB, 5-nitro-2(3-phenylpropylamino)-benzoic acid]
GABA-induced whole cell current (GABAA receptor): did not have any effect
NPPB sensitive and Best1-mediated tonic GABA release as share of total GABAzine-sensitive current (cerebellar granule cells [1]): about 70%
Tonic GABA current (cerebellar granule cells [1]; bath application of 50 μM NPPB, 8 wks B6 mice): reduced
NPPB-sensitive component of tonic GABA current (cerebellar granule cells [1]; naive mice, 50 μM NPPB): 18.95±2.47 pA
[Cl−]i in granular cell bodies and parallel fibers (cerebellar granule cells [2]): decreased
